According to article PMC2790922 (Molecular pharmaceutics, 2009):

Key:
[1] = molecular target: T1, human recombinant active MMP-2 (Homo sapiens, UniProt P08253); experiment: Cleavage of peptides by purified active MMP-2; type: biochemical; details: 10 µM GM6001; 9 nM active MMP-2; 37°C, 2 h; FAM fluorescence
T1 sequence (P08253 110-660): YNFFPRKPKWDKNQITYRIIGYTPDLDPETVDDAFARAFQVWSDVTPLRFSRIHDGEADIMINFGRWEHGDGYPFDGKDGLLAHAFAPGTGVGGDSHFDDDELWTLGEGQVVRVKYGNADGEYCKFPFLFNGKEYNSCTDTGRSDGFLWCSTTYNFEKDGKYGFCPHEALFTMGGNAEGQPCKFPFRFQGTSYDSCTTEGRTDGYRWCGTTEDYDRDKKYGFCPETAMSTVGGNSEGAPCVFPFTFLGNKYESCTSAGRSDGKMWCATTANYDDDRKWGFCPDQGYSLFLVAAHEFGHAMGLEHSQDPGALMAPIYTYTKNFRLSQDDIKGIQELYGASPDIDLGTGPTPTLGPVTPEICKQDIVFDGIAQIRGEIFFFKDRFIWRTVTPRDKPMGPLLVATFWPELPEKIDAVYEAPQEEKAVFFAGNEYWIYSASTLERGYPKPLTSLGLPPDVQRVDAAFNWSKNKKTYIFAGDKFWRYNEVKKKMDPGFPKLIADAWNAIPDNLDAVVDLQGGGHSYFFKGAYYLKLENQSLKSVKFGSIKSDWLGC

MMP-2 from HUVECs = experiment: Peptide cleavage by MMP-2 in PMA-treated HUVECs culture; type: cell-based, human; details: 25 µM GM6001, 30 min pre-treatment; 10 µM MMP-RGD; 24 h; p = 0.041

`CNC(=O)[C@H](Cc1c[nH]c2ccccc12)NC(=O)[C@@H](CC(=O)NO)CC(C)C` [GM6001] was tested, and the “inhibition of cleavage of MMP-RGD and MMP-control by purified MMP-2” value [1] was “inhibited” and the “inhibition of cleavage of MMP-RGD by PMA-treated HUVECs” value (MMP-2 from HUVECs) was “inhibited”.
